Reference: patent US20110028438A1, “MEDICAL USE OF 3-2,2,2-TRIMETHYLHYDRAZINIUM PROPIONATE SALTS” (JSC GRINDEKS, priority 2007, published 2011)
Marks after values point to notes of the source that are not given here.

Columns and labels:
[1] = test system: adult male Wistar rats; test: Myocardial infarction in vivo (coronary artery occlusion and 120 minute reperfusion); design: species or system rat; conditions: for Area of Necrosis, % of Area at Risk / Area of Risk/left ventricle area / Infarct size, % of control: rats, 100 mg/kg by mouth for 14 days; for Area of Necrosis, % of Area at Risk: after 120 minute reperfusion; for Area of Risk/left ventricle area: area at risk expressed as percentage of the left ventricle; for Infarct size, % of control: relative to saline control group; for Therapeutic effect in in vivo myocardial infarction model compared with Meldonium dihydrate: result in words
Protocol: Experiments were conducted on adult male Wistar rats with initial weight of 300-350 g. During the experiment, the animals were kept in Standard crates in groups of 8. The feed was a standardized diet R70 (LABFOR, Lactamin AB, Sweden). The room temperature was kept at 21-23° C., relative humidity at 65±10%, 12 hour light/darkness cycle.
Rats weighing approximately 300 g were randomly divided into 4 groups of 8 animals each. The first group received saline by mouth (control group), the second received 100 mg/kg Meldonium dihydrate by mouth, the third 100mg/kg Meldonium hydrogen fumarate and the fourth 100 mg/kg Meldonium dihydrogen phosphate received for 14 days.
Rats were anesthetized with sodium pentobarbital (60 mg/kg i.p.). They were intubated and artificially respirated with rodent respirator (Rodent Ventilator 7025, Ugo Basile, (tally) with 15 mL/kg room air at a respiration rate of 55 breaths/min. Thoracic was open on the left side of breastbone by cutting fourth and fifths, if necessary, ribs. The pericard was open and 5/0 polypropylene suture (Surgipro II, Syneture) was passed under the left anterior descending coronary artery and threaded through a small plastic tube to permit reversible occlusion of the coronart artery. Coronary flow was measured using an ultrasound flow detector (HSE) and PowerLab 8/30 system from ADlnstruments.
Occlusion was performed by constricting threads through a plastic tube.
At the end of the 120 minute reperfusion, After reperfusion hearts were excised and retrogradely perfused via aorta at a constant pressure of 50 mm Hg, with oxygenated Krebs-Henseleit buffer (content in mmol/L: NaCl 118, Ca Cl2 2.52, MgCl2 1.64, NaHCO3 24.88, KH2PO4 1.18, glucose 10.0, EDTA 0.05) pH 7.3-7.5 at 37° C. Then after 10 min the left anterior descending coronary artery was relegated and the risk zone was delineated with 4 mL of 0.1% methylene blue solution in Krebs-Henseleit buffer infused via the aorta root. Hearts were sectioned transversely from the apex to the base of 2 mm thickness and incubated in 1% triphenyl-tetrazolium chloride in phosphate buffer (pH 7.4, 37° C.) for 10 minutes to stain viable tissue red and necrotic tissue white. Afterward, the right ventricle was cut off and photos of the left-ventricle slices were made with a Minolta 7D photo camera. Computerized planemetric analysis of photographs was performed using Image-Pro Plus 4.5.1 software to determine the area at risk (AR) and area of necrosis (AN) expressed as percentage of the left ventricle (LV). Obtained values were then used to calculate the infarct size (IS) as percentage of risk area according to formula: […]

[2] = as disclosed in EP 1667960 A; cited from earlier work

SMILES	Area of Necrosis, % of Area at Risk [1]	Area of Risk/left ventricle area [1]	Infarct size, % of control [1]	Therapeutic effect in in vivo myocardial infarction model compared with Meldonium dihydrate [1]	Stability comparatively with Meldonium dihydrate [2]
C[N+](C)(C)NCCC(=O)[O-] [Meldonium dihydrate, 3-(2,2,2-Trimethylhydrazinium) propionate dihydrate, reference compound]	64.0 ± 2.7 % of Area at Risk	58.0 ± 2.2	99.0 ± 4.2 % of control	–	–
C[N+](C)(C)NCCC(=O)O.O=P([O-])(O)O [Meldonium dihydrogen phosphate, 3-(2,2,2-trimethylhydrazinium) propionate dihydrogen phosphate]	50.9 ± 2.6*^,# % of Area at Risk	57.0 ± 3.0	79.0 ± 4.1*^,# % of control	statistically better therapeutically effect than Meldonium dihydrate	more stable substance comparatively with Meldonium dihydrate
C[N+](C)(C)NCCC(=O)O.O=C([O-])/C=C/C(=O)O [Meldonium hydrogen fumarate, 3-(2,2,2-trimethylhydrazinium) propionate hydrogen fumarate]	52.2 ± 4.3 % of Area at Risk	62.0 ± 3.5	81.0 ± 6.6 % of control	more effective as Meldonium dihydrate	more stable substance comparatively with Meldonium dihydrate
